# According to patent publication US12091398B2, “PD-L1 antagonist compound” (ADLAI NORTYE BIOPHARMA CO., LTD., priority 2019, dated 2024):
# pEC50: −log10 of the molar value.
# Test system: PD-1/PD-L1 interaction
# Assay: Cell based PD-1/PD-L1 NFAT reporter assay
# Set-up: species or system human
# Conditions: Homo sapiens, 6 h, PD-1/NFAT-Reporter-Jurkat cells co-cultured with TCR activator/PD-L1-CHO cells; 6 hour incubation; luciferase; calibrated to Atezolizumab 10 nM; read-out: Absolute EC50
# Experimental: Cell Based PD-1/PD-L1 NFAT Reporter Assay
# Compounds of the present patent were tested in a cell based PD-1/PD-L1 NFAT reporter assay.
# The cell-based luciferase reporter assay is used for monitoring the PD-1/PD-L1 inhibitor by characterizing the biological activity of PD-1: PD-L1 interactions in cellular context. PD-1/NFAT-Reporter-Jurkat cells stably over-expressing human PD-1 with NFAT reporter are used as effector cells. TCR activator/PD-L1—CHO cells over-expressing PD-L1 and an engineered T cell receptor (TCR) activator are used as target cells. When these two cells are co-cultivated, TCR complexes on effector cells are activated by TCR activator on target cells, resulting in expression of the NFAT luciferase reporter. However, PD1 and PD-L1 (or PD-L2) ligation prevents TCR activation and suppresses the NFAT-responsive luciferase activity. This inhibition can be specifically reversed by anti-PD1 or anti-PD-L1 inhibitors. PD1/PD-L1 inhibitors block PD1:PD-L1 interaction and promote TCR activation, resulting in reactivation of the NFAT responsive luciferase reporter.
# PD-1/NFAT—Reporter—Jurkat cell (Cat: 60535) and TCR activator/PD-L1—CHO cell (Cat: 60536) were purchased from BPS Bioscience. Anti-human PD-L1 antibody (Atezolizumab, Cat: A2004) was purchased from Selleck; luciferase reporter gene expression detection kit (ONE-Glo™ Luciferase Assay System, Cat: E6120) was purchased from Promega; multifunction plate reader (SpectraMax i3x) was purchased from Molecular Devices.
# PD-1/NFAT—Reporter—Jurkat cells and TCR activator/PD-L1—CHO cells were cultured in recommended media respectively.
# Harvest TCR activator/PD-L1-CHO cells from culture and seed cells at a density of 35,000 cells per well into 96-well microplate in 100 µl of growth medium. Incubate cells at 37° C. in a CO2 incubator overnight. Next day, discard the culture media, add diluted compound in assay medium for 30 min. Anti-PD-L1 antibody (Atezolizumab, final concentration 10 nM) and 0.1% DMSO were the positive and negative control, respectively. Harvest the PD-1/NFAT-reporter-Jurkat cells by centrifugation and add to the wells. After 6 hour incubation, perform luciferase assay using the ONE-Glo™ Luciferase Assay System, following the manufacturer's assay protocol.
# Anti-PD-L1 antibody (Atezolizumnab, 10 nM) was used as positive control to calibrate the inhibition rate using the following equation: % inhibition=(Sample luminescence/Average vehicle group luminescence−1)/(Average PD-L1 group luminescence/Average vehicle group luminescence−1)×100%.
row,SMILES,pEC50
1,"COc1cc(OCc2cccc(-c3cccc4c3cnn4Cc3cc(OCc4cncc(C#N)c4)c(CNCCO)cc3Cl)c2C)c(Cl)cc1CNCCO [Compound 68, 5-((4-chloro-5-((4-(3-((2-chloro-4-(((2-hydroxyethyl)amino)methyl)-5-methoxyphenoxy)methyl)-2-methylphenyl)-1H-indazol-1-yl)methyl)-2-(((2-hydroxyethyl)amino)methyl)phenoxy)methyl)nicotinonitrile]",6.46
2,"COc1cc(OCc2cccc(-c3cccc4c3cnn4Cc3cc(OCc4cncc(C#N)c4)c(CNC[C@@H]4CCC(=O)N4)cc3Cl)c2C)c(Cl)cc1CNC[C@@H]1CCC(=O)N1 [Compound 69, 5-((4-chloro-5-((4-(3-((2-chloro-5-methoxy-4-(((((S)-5-oxopyrrolidin-2-yl)methyl)amino)methyl)phenoxy)methyl)-2-methylphenyl)-1H-indazol-1-yl)methyl)-2-(((((S)-5-oxopyrrolidin-2-yl)methyl)amino)methyl)phenoxy)methyl)nicotinonitrile]",6.80
3,"COc1cc(OCc2cccc(-c3cccc4c3cnn4Cc3cc(OCc4cncc(C#N)c4)c(CN4CCC(C)(C(=O)O)C4)cc3Cl)c2C)c(Cl)cc1CN1CCC(C)(C(=O)O)C1 (stereo not drawn) [Compound 70, 1-(4-((3-(1-(4-((3-carboxy-3-methylpyrrolidin-1-yl)methyl)-2-chloro-5-((5-cyanopyridin-3-yl)methoxy)benzyl)-1H-indazol-4-yl)-2-methylbenzyl)oxy)-5-chloro-2-methoxybenzyl)-3-methylpyrrolidine-3-carboxylic acid]",5.23
4,Cc1c(COc2cc(OCc3cncc(C#N)c3)c(CNCCO)cc2Cl)cccc1-c1cccc2c1cnn2Cc1cc(OCc2cncc(C#N)c2)c(CNCCO)cc1Cl [Compound 71],6.87
5,COc1cc(OCc2cccc(-c3cccc4c3cnn4Cc3cc(OCc4cncc(C#N)c4)c(CN)cc3Cl)c2C)c(Cl)cc1CN [Compound 72],< 5.95
6,COc1cc(OCc2cccc(-c3cccc4c3cnn4Cc3cc(OCc4cncc(C#N)c4)c(CN)cc3Cl)c2C)c(Cl)cc1CN[C@@H](CO)C(=O)O [Compound 73],6.35
7,COc1cc(OCc2cccc(-c3cccc4c3cnn4Cc3cc(OCc4cncc(C#N)c4)c(CN[C@@H](CO)C(=O)O)cc3Cl)c2C)c(Cl)cc1CN [Compound 74],5.57
8,Cc1c(COc2cc(OCc3cncc(C#N)c3)c(CN)cc2Cl)cccc1-c1cccc2c1cnn2Cc1cc(OCc2cncc(C#N)c2)c(CN)cc1Cl [Compound 75],5.55
9,COc1nc(-c2cccc(-c3cccc4c3cnn4Cc3cc(OCc4cncc(C#N)c4)c(CN[C@@H](CO)C(=O)O)cc3Cl)c2Cl)ccc1CNC[C@@H]1CCC(=O)N1 [Compound 76],7.47
10,N#Cc1cncc(COc2cc(Cn3ncc4c(-c5cccc(-c6ccc(CNC[C@@H]7CCC(=O)N7)cc6)c5Cl)cccc43)c(Cl)cc2CN[C@@H](CO)C(=O)O)c1 [Compound 77],7.55
11,COc1cc(OCc2cccc(-c3cccc4c3c(C)nn4Cc3cc(OCc4cncc(C#N)c4)c(CN[C@@H](CO)C(=O)O)cc3Cl)c2C)c(Cl)cc1CN[C@@H](CO)C(=O)O [Compound 78],5.79

# More lines, now with the values ahead:
row,pEC50,SMILES
1,< 6.43,N#Cc1cncc(COc2cc(OCc3cccc(-c4cccc5c4cnn5CCCCN4CC[C@@H](O)C4)c3Br)c(Cl)cc2CN2CC[C@H](O)C2)c1 [Compound 79]
2,6.50,N#Cc1cncc(COc2cc(OCc3cccc(-c4cccc5c4cnn5CCCCN4CC[C@@H](O)C4)c3Br)c(Cl)cc2CNCCO)c1 [Compound 80]
3,6.66,C[C@H](CO)NCc1cc(Cl)c(OCc2cccc(-c3cccc4c3cnn4CCCCN3CC[C@@H](O)C3)c2Br)cc1OCc1cncc(C#N)c1 [Compound 81]
4,6.47,N#Cc1cncc(COc2cc(OCc3cccc(-c4cccc5c4cnn5CCCCN4CC[C@@H](O)C4)c3Br)c(Cl)cc2CN2CC[C@@H](O)C2)c1 [Compound 82]
5,6.63,N#Cc1cncc(COc2cc(OCc3cccc(-c4cccc5c4cnn5CCCCN4CC[C@@H](O)C4)c3Br)c(Cl)cc2CNC[C@@H]2CCC(=O)N2)c1 [Compound 83]
6,5.76,CC1(C(=O)O)CCN(Cc2cc(Cl)c(OCc3cccc(-c4cccc5c4cnn5CCCCN4CC[C@@H](O)C4)c3Br)cc2OCc2cncc(C#N)c2)C1 (stereo partly drawn) [Compound 84]
7,< 6.43,N#Cc1cncc(COc2cc(OCc3cccc(-c4cccc5c4cnn5CCCCN4CC[C@@H](O)C4)c3Br)c(Cl)cc2CN2CCCC2)c1 [Compound 85]
8,6.67,N#Cc1cncc(COc2cc(OCc3cccc(-c4cccc5c4cnn5CCCCNC[C@@H]4CCC(=O)N4)c3Br)c(Cl)cc2CN[C@@H](CO)C(=O)O)c1 [Compound 86]
9,7.01,"N#Cc1cncc(COc2cc(OCc3cccc(-c4cccc5c4cnn5CCCNC[C@@H]4CCC(=O)N4)c3Br)c(Cl)cc2CN[C@@H](CO)C(=O)O)c1 [Compound 87, (4-((2-bromo-3-(1-(3-((((S)-5-oxopyrrolidin-2-yl)methyl)amino)propyl)-1H-indazol-4-yl)benzyl)oxy)-5-chloro-2-((5-cyanopyridin-3-yl)methoxy)benzyl)-L-serine]"
10,5.99,"Cc1c(OCCCN2CC[C@@H](O)C2)cccc1-c1ccnc2c1cnn2Cc1cc(OCc2cncc(C#N)c2)c(CN[C@@H](CO)C(=O)O)cc1Cl [Compound 88, (5-chloro-2-((5-cyanopyridin-3-yl)methoxy)-4-((4-(3-(3-((R)-3-hydroxypyrrolidin-1-yl)propoxy)-2-methylphenyl)-1H-pyrazolo[3,4-b]pyridin-1-yl)methyl)benzyl)-L-serine]"
11,5.26,"Cc1c(OCCCN2CC[C@@H](O)C2)cccc1-c1cncc2c1cnn2Cc1cc(OCc2cncc(C#N)c2)c(CN[C@@H](CO)C(=O)O)cc1Cl [Compound 89, (5-chloro-2-((5-cyanopyridin-3-yl)methoxy)-4-((4-(3-(3-((R)-3-hydroxypyrrolidin-1-yl)propoxy)-2-methylphenyl)-1H-pyrazolo[3,4-c]pyridin-1-yl)methyl)benzyl)-L-serine]"
12,6.29,"COc1cc(Cn2ccc3c(-c4cccc(-c5ccc(CNC[C@@H]6CCC(=O)N6)cc5)c4Cl)cccc32)c(Cl)cc1CN[C@@H](CO)C(=O)O [Compound 91, (5-chloro-4-((4-(2-chloro-4′-(((((S)-5-oxopyrrolidin-2-yl)methyl)amino)methyl)-[1,1′-biphenyl]-3-yl)-1H-indol-1-yl)methyl)-2-methoxybenzyl)-L-serine]"
13,6.38,"COc1cc(Cn2nnc3c(-c4cccc(-c5ccc(CNC[C@@H]6CCC(=O)N6)cc5)c4Cl)cccc32)c(Cl)cc1CN[C@@H](CO)C(=O)O [Compound 92, (5-chloro-4-((4-(2-chloro-4′-(((((S)-5-oxopyrrolidin-2-yl)methyl)amino)methyl)-[1,1′-biphenyl]-3-yl)-1H-benzo[d][1,2,3]triazol-1-yl)methyl)-2-methoxybenzyl)-L-serine]"
14,5.67,"COc1cc(Cn2cnc3c(-c4cccc(-c5ccc(CNC[C@@H]6CCC(=O)N6)cc5)c4Cl)cccc32)c(Cl)cc1CN[C@@H](CO)C(=O)O [Compound 93, (5-chloro-4-((4-(2-chloro-4′-(((((S)-5-oxopyrrolidin-2-yl)methyl)amino)methyl)-[1,1′-biphenyl]-3-yl)-1H-benzo[d]imidazol-1-yl)methyl)-2-methoxybenzyl)-L-serine]"
15,< 5.00,"CN1CCC2(CC1)CCN(Cc1cccc(-c3cccc4c3cnn4Cc3cc(OCc4cncc(C#N)c4)c(CN[C@@H](CO)C(=O)O)cc3Cl)c1Cl)CC2 [Compound 94, (5-chloro-4-((4-(2-chloro-3-((9-methyl-3,9-diazaspiro[5.5]undecan-3-yl)methyl)phenyl)-1H-indazol-1-yl)methyl)-2-((5-cyanopyridin-3-yl)methoxy)benzyl)-L-serine]"

# Same assay, conditions: Homo sapiens; PD-1/NFAT-Reporter-Jurkat cells co-cultured with TCR activator/PD-L1-CHO cells; 6 hour incubation; luciferase; calibrated to Atezolizumab 10 nM; read-out: Absolute EC50
row,SMILES,pEC50
1,"N#Cc1cncc(COc2cc(Cn3ncc4c(-c5cccc(OCc6ccc(CN7CC[C@@H](O)C7)cc6)c5Cl)cccc43)c(Cl)cc2CN[C@@H](CO)C(=O)O)c1 [Compound 90, (5-chloro-4-((4-(2-chloro-3-((4-(((R)-3-hydroxypyrrolidin-1-yl)methyl)benzyl)oxy)phenyl)-1H-indazol-1-yl)methyl)-2-((5-cyanopyridin-3-yl)methoxy)benzyl)-L-serine]",5.97
